In brackets after ≈: the same amount, converted by molar mass. Where two headings read alike, the source gives them in different places. Starred links: 1 amine or outer side, 2 acyl side, 3 side chain; linkers in the order of their positions; H or OH if unused. Positions of bridges follow the written chain, without caps; N, C: chain ends. Non-standard residues stand in square brackets, D forms with d. Residues, ends and D or L forms follow the SMILES beside them. X5 = CC(C)CCCCCCC[C@H](CC(=O)[*:1])O[*:2]; X2 = CCCCCCC[C@H](CC(=O)[*:1])O[*:2]; Val(3-OH) = CC(C)(O)[C@H](N)C(=O)O; X1 = C/C=C(/N[*:1])C(=O)[*:2]; Dab = NCC[C@H](N)C(=O)O; Dap = NC[C@H](N)C(=O)O
Assays:
[1] = system: P. aeruginosa; test: MIC determined at the Public Health Agency of Sweden (EUCAST); format: cell-based, Pseudomonas aeruginosa; settings: for MIC: Pseudomonas aeruginosa, Public Health Agency of Sweden
Method: 10^8 CFU/mL) with turbidity assessed using a Sensititre Nephelometer (Trek Diagnostics Systems Ltd, UK). 50 µL of this bacterial suspension was transferred to 10 mL of MHII broth to give a final bacterial concentration ≅ 5 × 10^5 CFU/mL (acceptable range 3 – 7 × 10^5 CFU/mL). 50 µL of bacterial suspension was pipetted into each well (except the medium control well, where 50 µL MHII was pipetted). Final volume in each well was 100 µL. Plates were covered and incubated without shaking for 18-20 h at 35 °C ± 2 °C. MIC was read visually, as complete inhibition of growth by the unaided eye, using the medium-only wells as the control. Each compound was assayed at least in duplicate.
Additionally, the MIC for compound 2 against clinical carbapenem-resistant strains of A. baumannii […]
determined at the Public Health Agency of Sweden (according to EUCAST recommendations).
In vitro Cytotoxicity Determination. In vitro cytotoxicity was determined by a fluorometric microculture cytotoxicity assay,7 based on hydrolysis of fluorescein diacetate to fluorescein by cells with intact plasma membranes. In short, HepG2 cells (hepatocellular carcinoma cells, ATCC), in Eagle's Minimum Essential Medium (ATCC) supplemented with 10 % fetal bovine serum, penicillin/streptomycin (100 U/100 µg/mL) and 2 mM L-glutamine, were seeded in 384-well assay plates at a density of 1000 cells/well. The cells were incubated over night at 37°C and compounds in 10 mM DMSO were added, to obtain final concentrations 64 µM – 0.25 µM in two-fold dilutions.
After incubation for 72 h at 37°C, the cells were pelleted and washed. Fluorescein diacetate was added (1 µL, 0.5 mg/mL) and the fluorescence [485 nm(exc)/530 nm(em.)] was measured after 50 min at 37°C. Bortezomib (2 µM) was used as positive control and dose response testing of doxorubicin (top concentration 2 µM) was performed repeatedly to follow assay performance over time. Cytotoxicity was assessed after 72 h with cell survival presented as survival index (SI, %) defined as fluorescence in test wells in percent of control cultures with blank values subtracted.
Criteria for a successful assay include a signal-to-noise ratio in control cultures >10, CV <30% and a 7 Lindhagen, E., Nygren, P., and Larsson, R. (2008) The fluorometric microculture cytotoxicity assay. Nat.

[2] = system: red blood cells from heparinized human blood; test: in vitro; format: cell-based; settings: 45 min, 100 µM, pH 7.4
Method: positive control (Bortezomib) SI of <5%. The half maximal inhibitory concentration (IC50) was determined from log concentration-effect curves using non-linear regression analysis.
Frequency of resistance (FoR). For the determination of the FoR, the MIC of compound 2 was first evaluated on solid MH-agar medium prepared in 35 mm diameter plates. Each plate contained 4 mL agar with the appropriate amount of compound. Bacterial cultures were grown and prepared as described for the MIC assay. 13 µL of bacterial culture diluted to 0.5 MacFarland was inoculated into 1 mL 0.9% NaCl resulting in ~2 × 10^6 CFU/mL. 5 µL of this bacterial suspension was spotted onto the surface of each agar plate (~10^4 CFU/spot). Plates were sealed and incubated at 37°C for 18–20 hours. Agar MIC was recorded according to CLSI guidelines as the lowest concentration of […]
faint haze caused by the inoculum. Then 9 cm plates were prepared with 25 mL MHII agar medium containing 4 × or 8 × solid MIC concentrations of test compounds and seeded with 100 µL of a bacterial preparation, concentrated by centrifugation from overnight cultures and resuspended in 0.9% NaCl, corresponding to 108 CFU and 109 CFU per plate, and spread on the agar using 4–5 glass beads of 4 mm diameter. Since CFU were evaluated using the McFarland turbidity standard, the exact CFU number plated was evaluated by plating of serial dilutions of each inoculum preparation on MHII agar plates. Plates were incubated at 37°C and colonies were counted at 24 h and 48 h post-plating. The frequencies of resistance were then calculated by counting the number of validated resistant colonies growing on antibiotic preparations divided by the evaluated number of CFU in the inoculum.
Hemolysis assay. Compounds were evaluated for hemolytic activity using red blood cells from heparinized human blood. Red blood cells (RBC) were washed three times in Tyrode buffer (130 mM NaCl, 4 mM KCl, 2.8 mM NaOAc, 1 mM MgCl2, 10 mM HEPES, 10 mM glucose, 1 mM CaCl2, adjusted to pH 7.4) and resuspended in the same buffer. Final concentrations in the hemolysis assay were: 100 µM compound, 1% DMSO, and 50% RBC, assayed in a 200 µL volume in a microtiter plate. The mixture was incubated at 37 °C for 45 min with shaking (250 rpm). After incubation, RBCs were removed by centrifugation (1000 × g for 10 min), 100 µL clear plasma was transferred to a fresh microtiter plate, and the amount of hemoglobin measured using a spectrophotometer at 540 nm. The […]
complete lysis control contained 2% Triton X-100 (in Tyrode buffer) instead of compound; the negative control contained Tyrode buffer but no compound. Percent hemolysis was calculated as:
[Abs compound] - [Abs negative control] / [Abs complete lysis control] - [Abs negative control] ×
100. Values greater than 1% hemolysis at 100 µM were regarded as a red flag.
Bacterial membrane permeabilization assay. Liposomes were manufactured and permeabilization assayed as described previously.8 Briefly, dry lipid films of E. coli polar lipid extract were formed on round-bottom flask walls. This was achieved by dissolving lipids in chloroform and evaporating the solvent under agitation and nitrogen gas flow, followed by incubation in vacuum chamber. Lipid films were re-suspended by 30 min stirring (E. coli) at 55°C in an aqueous solution of 100 mM 5(6)-carboxyfluorescein in 10 mM Tris buffer (set to pH 7.4 at 37°C). Suspensions were subjected to repeated extrusion through a 100 nm pore size polycarbonate membrane in order to reduce multilamellar structures and polydispersity. Un-trapped carboxyfluorescein was removed by gel filtration. Membrane permeability was measured by monitoring carboxyfluorescein efflux from the liposomes to the external low concentration environment, resulting in loss of self-quenching and an increased fluorescence signal. The 96-well plates were prepared with a 2-fold serial dilution of the samples in Tris buffer, as well as negative controls (background) and 0.16% Triton X-100 (maximum […]
leakage). […]

[3] = Bacterial membrane permeabilization assay (carboxyfluorescein leakage from liposomes); format: biochemical; settings: large unilamellar liposomes from E. coli phospholipid extract, 45 min, 37 °C

| Compound | MIC ([1]; ATCC27853, WT, read-out: MIC P. aeruginosa ATCC27853) [µg/mL] | MIC ([1]; CARBA, read-out: MIC P. aeruginosa PS826) [µg/mL] | MIC ([1]; CARBA, read-out: MIC P. aeruginosa PS992) [µg/mL] | MIC carbapenem-resistant P. aeruginosa ([1]; summary in text over strains, strains not named) [µg/mL] | Hemolysis (%) [2] [%] | EC50 [3] [nM] |
| --- | --- | --- | --- | --- | --- | --- |
| C/C=C1/NC(=O)[C@H](CCN)NC(=O)[C@H](CC(C)C)NC(=O)[C@H](CN)NC(=O)C[C@@H](CCCCCCC)OC(=O)[C@H](CC(=O)O)NC(=O)[C@H](C(C)(C)O)NC(=O)[C@@H](Cc2ccccc2)NC(=O)[C@H](CN)NC(=O)[C@H]([C@@H](C)O)NC1=O [Compound 2, isopedopeptin B] ([Dap]L[Dab][X1]T[Dap][dF][Val(3-OH)]D; linker N-C via X2) | 4 (≈ 3.58 µM) | 4 (≈ 3.58 µM) | 4 (≈ 3.58 µM) | ≥ 4 | 0.8 |  |
| C/C=C1/NC(=O)[C@H](CCN)NC(=O)[C@H](CC(C)C)NC(=O)[C@H](CN)NC(=O)C[C@@H](CCCCCCCC(C)C)OC(=O)[C@H](CC(=O)O)NC(=O)[C@H](C(C)(C)O)NC(=O)[C@@H](Cc2ccccc2)NC(=O)[C@H](CN)NC(=O)[C@H]([C@@H](C)O)NC1=O [Compound 6, Isopedopeptin F] ([Dap]L[Dab][X1]T[Dap][dF][Val(3-OH)]D; linker N-C via X5) |  |  |  |  |  | 2000 |

— paper PMC7684578, “Isopedopeptins A–H: Cationic Cyclic Lipodepsipeptides from Pedobacter cryoconitis UP508 Targeting WHO Top-Priority Carbapenem-Resistant Bacteria” (ACS Chemical Biology, 2020)
